What all share (test): NCI anticancer screen, dose series, 48 h
Test [1] has as its system CAKI-1 renal.
In test [2] the test system is HOP-62 NSCLC.
The subject of test [3] is NCI-H226 lung.
The subject of test [4] is NCI-H23 lung.
The test system of test [5] is NCI/ADR-RES ovarian.
Test [6] relates to OVCAR-8 ovarian.
For test [7], the system named is SF-295 CNS.
In test [8] the test system is SK-MEL-2 melanoma.
The test system of test [9] is UACC-257 melanoma.
Test [10] deals with HOP-92 NSCLC.

For 9 compounds, GI50 and TGI results are on record in PubChem BioAssay (NCI).

Several values for one entry are separate records, joined by “and”; a condition that tells them apart may be missing. Equal values may be shown once.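 Cells were grown in 96-well plates and exposed to each compound for 48 hours at five concentrations; endpoints were interpolated linearly between bracketing concentrations, or set to the highest concentration if not reached. GI50 = concentration required for 50% inhibition of growth. TGI: concentration producing complete growth inhibition.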 A value given as a limit tells only on which side of the number the result lay.

Take `CC1(C)CC2(C)OC2C2(C1)N=NC(=Nc1ccccc1)O2` (centres undefined): the GI50 is 2.68 µM in [1]; 8.76 µM in test [2]; 10.7 µM in test [3]; 5.93 µM in test [4]; 4.44 µM in [5]; 2.9 µM in test [6]. For the same compound, the GI50 in [7] is 13.3 µM; in test [8] it was 10.5 µM; in [9] it was 4.11 µM. Further, the TGI in [1] is 12.5 µM; in test [2], 30.4 µM; in test [3], 29.6 µM; in test [4], 29.9 µM; in test [5], 55.2 µM; in [6], more than 100 µM. The TGI was 29.1 µM in [7], 24.3 µM in test [8] and 15.7 µM in test [9].
In the case of `C=C(C)[C@]12CC(C)C34OC(/C=C\C=C\CCCCCCCCC)(O[C@@H]1[C@@H]3[C@@H]1O[C@]1(CO)[C@@H](O)[C@]1(O)C(=O)C(C)=C[C@@H]41)O2` (some centres undefined), the TGI in test [10] was 22.4 µM; in test [3], 33.2 µM; in test [4], 29.2 µM; in test [5], 45.2 µM; in test [6] it was 31.8 µM; in test [9], 28.5 µM.
For `O=c1c2cc(F)ccc2sc2c(NCCCN3CCCC3)nc3ccccc3c12`, the GI50 was 1.48 µM in [1]; 1.13 µM in [10]; 3.37 µM in test [3]; 1.89 µM in [4]; 1.99 µM in test [5]; 2.11 µM in test [6]. Also, the GI50 in test [7] was 2.1 µM; in test [8] it was 2.19 µM; in [9], 1.97 µM. Further, the TGI came to 2.95 µM in test [1]; 3.85 µM in test [10]; 15.4 µM in test [3]; 3.69 µM in test [4]; 4.49 µM in [5]; 4.86 µM in test [6]. Moreover, the TGI in [7] stood at 4.39 µM; in test [8], 4.77 µM; in [9], 3.98 µM.
`C#Cc1ccc(-n2c(/C=C/c3cc(OC)c(OC)c(OC)c3)nc3ncccc3c2=O)cc1`: the GI50 was 6.07 µM in [1]; 13.3 µM in test [2]; 2.31 µM in [10]; 12.9 µM in test [3]; 17.3 µM in [4]; 3.61 µM in test [5]. Also, the GI50 in [6] was 9.67 µM; in test [8] it was 4.54 µM; in test [9] it was 9.74 µM. For the same compound, the TGI is more than 100 µM in test [1]; more than 100 µM in test [2]; 7.72 µM in [10]; more than 100 µM in test [3]; more than 100 µM in [4]; 34.5 µM in [5]. Besides, the TGI in test [6] was more than 100 µM; in [8] it was 22.1 µM; in [9], more than 100 µM.
Turning to `CN1CCN(C(=S)SCN2C(=O)c3ccccc3S2(=O)=O)CC1`, the GI50 in test [1] was 51.9 µM; in [2], more than 100 µM; in test [3], more than 100 µM; in test [4], 35.1 µM; in test [5], 34 µM; in [6], 46.3 µM. The GI50 is more than 100 µM in test [7], more than 100 µM in test [8] and 63.9 µM in [9]. In addition, the TGI in [1], in test [2], in [3], in test [4], in test [5] and in test [6] was more than 100 µM each time. In addition, the TGI in test [7], in test [8] and in test [9] was more than 100 µM each time.
Turning to `C#Cc1cccc(Nc2ncnc3ccc(-c4cncc(NS(C)(=O)=O)c4)cc23)c1`, the GI50 was 1.84 µM in test [2]; 0.447 µM in test [10]; 2.99 µM in test [3]; 2.36 µM in [4]; 21.7 µM in test [5]; 3.7 µM in [6]. Further, the figures for the GI50 in test [7], in test [8] and in test [9] were 2.47 µM, 0.845 µM and 3.7 µM, respectively. Moreover, the TGI in test [2] is 14.1 µM; in [10], 3.73 µM; in test [3], 16.8 µM; in test [4] it was 10.8 µM; in test [5], more than 100 µM; in [6] it was 28.1 µM. In addition, the TGI came out at 10.5 µM in [7], 2.2 µM in [8] and 16.2 µM in test [9].
Take `Cc1cc(N)c2ccccc2[n+]1CCCCCCCCCC[n+]1c(C)cc(N)c2ccccc21`: the GI50 was 1.37 µM and 3.27 µM in test [1]; 0.201 µM in test [2]; 0.168 µM in test [10]; 0.576 µM and 1.11 µM in test [3]; 0.236 µM and 0.484 µM in test [4]; 5.42 µM and 13.2 µM in [5]. The GI50 in test [6] is 0.218 µM; in [7], 0.189 µM; in test [8], 0.674 µM and 1.4 µM. For the same compound, the TGI was > 50 µM and 27.7 µM and 18.6 µM in test [1]; 2.8 µM and 9.51 µM in test [2]; > 50 µM and 22.7 µM and 5.29 µM in test [3]; > 12.4 µM and 3.96 µM and 3.89 µM in test [4]; > 38.5 µM and 48.5 µM and 42.9 µM in [5]; 1.99 µM and 13.8 µM in test [6]. In addition, the TGI in test [7] was 1.84 µM and 11.9 µM and 3.61 µM; in [8], 1.93 µM and 9.03 µM and 3.78 µM.
Regarding `COCCCN1C(=O)C2c3[nH]c4ccccc4c3C3CCC(C(C)(C)C)CC3C2C1=O` (centres undefined), the TGI in test [1] is 55 µM; in test [2], 52.2 µM; in test [3] it was 60.6 µM; in test [4] it was 82.6 µM; in [5], more than 10 µM; in [6], more than 100 µM. In addition, the figures for the TGI in [7] and in test [9] were 56.3 µM and 79.4 µM, respectively.
As to `CCCCCCCCCCCCCCCCCC1=NC(C)(C)CN1CCO`, the GI50 is 1.6 µM in [1]; 1.82 µM in test [2]; 1.4 µM in [10]; 2.84 µM in [3]; 1.71 µM in [4]; 3.16 µM in [5]. Also, the GI50 in test [7] is 1.79 µM; in [8], 1.97 µM; in test [9], 1.8 µM. Further, the TGI was found to be 3.37 µM in [1]; 3.54 µM in test [2]; 7.84 µM in test [10]; 9.04 µM in [3]; 3.33 µM in [4]; 11.5 µM in test [5]. Besides, the TGI stood at 3.68 µM in test [7], 3.63 µM in test [8] and 3.57 µM in [9].
